Experimental data taken from patent US9302999B2, “Substituted triazoles as herbicides” (E. I. DU PONT DE NEMOURS AND COMPANY, priority 2012, dated 2016).

Columns and labels:
Format in all cases: in vivo
[1] = system: radish, wild (wild radish, Raphanus raphanistrum); assay: Test D pre-/postemergence: radish, wild
How it was run: (§1)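 Visual ratings from 0 (no effect) to 100 (complete control) were made 14–21 days after treatment, relative to controls. Applications were preemergence to seeds in silt loam, or postemergence to 2–18 cm (1–4 leaf) plants in peat-based medium. Compounds were formulated in a surfactant-containing non-phytotoxic solvent.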

[2] = system: barley, winter (winter barley, Hordeum vulgare); assay: Test D pre-/postemergence: barley, winter
How it was run: as §1

[3] = system: barley, spring (spring barley, Hordeum vulgare); assay: Test D pre-/postemergence: barley, spring
How it was run: as §1

[4] = system: canarygrass (Phalaris minor); assay: Test D pre-/postemergence: canarygrass
How it was run: as §1

[5] = system: oat, wild (wild oat, Avena fatua); assay: Test D pre-/postemergence: oat, wild
How it was run: as §1

[6] = system: poinsettia, wild (wild poinsettia, Euphorbia heterophylla); assay: Test F pre-/postemergence: poinsettia, wild
How it was run: (§2)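 Seeds were sown in silt loam soil and sprayed preemergence with test chemical in a non-phytotoxic solvent mixture containing surfactant; postemergence treatments went onto plants 2 to 18 cm tall (1- to 4-leaf stage) grown in peat moss/vermiculite medium. After 14 to 21 days in a greenhouse, injury was rated visually against controls, 0 (no effect) to 100 (complete control).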

[7] = system: soybean (Glycine max); assay: Test F pre-/postemergence: soybean
How it was run: as §2

[8] = system: panicum, fall (fall panicum Panicum dichotomiflorum); assay: Test F pre-/postemergence: panicum, fall
How it was run: as §2

[9] = system: field poppy (Papaver rhoeas); assay: Test D pre-/postemergence: field poppy
How it was run: as §1

[10] = system: field violet (Viola arvensis); assay: Test D pre-/postemergence: field violet
How it was run: as §1

[11] = Postemergence, 31 g ai/ha, scale 0 to 100 (0 no effect, 100 complete control)
[12] = Postemergence, 62 g ai/ha, scale 0 to 100 (0 no effect, 100 complete control)
[13] = Postemergence, 125 g ai/ha, scale 0 to 100, 0 no effect, 100 complete control
[14] = Postemergence, 16 g ai/ha, scale 0 to 100
[15] = Preemergence, 16 g ai/ha, scale 0 to 100, 0 no effect, 100 complete control
[16] = Preemergence, 31 g ai/ha, scale 0 to 100, 0 no effect, 100 complete control
[17] = Preemergence, 62 g ai/ha, scale 0 to 100
[18] = Preemergence, 125 g ai/ha, scale 0 to 100
[19] = Postemergence, 8 g ai/ha, scale 0 to 100
[20] = Postemergence, 31 g ai/ha, scale 0 to 100
[21] = Postemergence, 62 g ai/ha, scale 0 to 100
[22] = Postemergence, 125 g ai/ha, scale 0 to 100
[23] = Preemergence, 8 g ai/ha, scale 0 to 100, 0 no effect, 100 complete control

CCOc1nn(-c2ccc(F)cc2)nc1Cc1ccnc(C(F)(F)F)c1 [Compound 196, 4-[[5-ethoxy-2-(4-fluorophenyl)-2H-1,2,3-triazol-4-yl]methyl]-2-(trifluoromethyl)pyridine]
Plant response rating: Radish, Wild [1, 11]: 100 | Plant response rating: Radish, Wild [1, 12]: 100 | Plant response rating: Radish, Wild [1, 13]: 100 | Plant response rating, Radish, Wild [1, 14]: 65 | Plant response rating, Radish, Wild [1, 15]: 50 | Plant response rating, Radish, Wild [1, 16]: 20 | Plant response rating, Radish, Wild [1, 17]: 70 | Plant response rating, Radish, Wild [1, 18]: 100 | Plant response rating: Barley, Winter [2, 11]: 20 | Plant response rating: Barley, Winter [2, 12]: 35 | Plant response rating: Barley, Winter [2, 13]: 40 | Plant response rating, Barley, Winter [2, 14]: 15 | Plant response rating, Barley, Winter [2, 15]: 5 | Plant response rating, Barley, Winter [2, 16]: 10 | Plant response rating, Barley, Winter [2, 17]: 15 | Plant response rating, Barley, Winter [2, 18]: 40 | Plant response rating: Barley, Spring [3, 11]: 20 | Plant response rating: Barley, Spring [3, 12]: 35 | Plant response rating: Barley, Spring [3, 13]: 55 | Plant response rating, Barley, Spring [3, 14]: 15 | Plant response rating, Barley, Spring [3, 15]: 5 | Plant response rating, Barley, Spring [3, 16]: 5 | Plant response rating, Barley, Spring [3, 17]: 15 | Plant response rating, Barley, Spring [3, 18]: 30 | Plant response rating: Canarygrass [4, 11]: 70 | Plant response rating: Canarygrass [4, 12]: 80 | Plant response rating: Canarygrass [4, 13]: 85 | Plant response rating, Canarygrass [4, 14]: 30 | Plant response rating, Canarygrass [4, 15]: 40 | Plant response rating, Canarygrass [4, 16]: 100 | Plant response rating, Canarygrass [4, 17]: 100 | Plant response rating, Canarygrass [4, 18]: 100 | Plant response rating: Oat, Wild [5, 11]: 50 | Plant response rating: Oat, Wild [5, 12]: 45 | Plant response rating: Oat, Wild [5, 13]: 70 | Plant response rating, Oat, Wild [5, 14]: 15 | Plant response rating, Oat, Wild [5, 15]: 25 | Plant response rating, Oat, Wild [5, 16]: 30 | Plant response rating, Oat, Wild [5, 17]: 75 | Plant response rating, Oat, Wild [5, 18]: 100 | Plant response rating, Poinsettia, Wild [6, 19]: 75 | Plant response rating, Poinsettia, Wild [6, 14]: 85 | Plant response rating, Poinsettia, Wild [6, 20]: 95 | Plant response rating, Poinsettia, Wild [6, 21]: 95 | Plant response rating, Poinsettia, Wild [6, 22]: 95 | Plant response rating, Poinsettia, Wild [6, 23]: 0 | Plant response rating, Poinsettia, Wild [6, 15]: 50 | Plant response rating, Poinsettia, Wild [6, 16]: 50 | Plant response rating, Poinsettia, Wild [6, 18]: 75 | Plant response rating, Soybean [7, 19]: 50 | Plant response rating, Soybean [7, 14]: 60 | Plant response rating, Soybean [7, 20]: 65 | Plant response rating, Soybean [7, 21]: 70 | Plant response rating, Soybean [7, 22]: 80 | Plant response rating, Soybean [7, 23]: 0 | Plant response rating, Soybean [7, 15]: 0 | Plant response rating, Soybean [7, 16]: 20 | Plant response rating, Soybean [7, 18]: 35 | Plant response rating, Panicum, Fall [8, 19]: 20 | Plant response rating, Panicum, Fall [8, 14]: 40 | Plant response rating, Panicum, Fall [8, 20]: 80 | Plant response rating, Panicum, Fall [8, 21]: 85 | Plant response rating, Panicum, Fall [8, 22]: 85 | Plant response rating, Panicum, Fall [8, 23]: 25 | Plant response rating, Panicum, Fall [8, 16]: 98 | Plant response rating, Panicum, Fall [8, 18]: 100 | Plant response rating: Field Poppy [9, 11]: 100 | Plant response rating: Field Poppy [9, 12]: 100 | Plant response rating: Field Poppy [9, 13]: 100 | Plant response rating, Field Poppy [9, 14]: 100 | Plant response rating, Field Poppy [9, 15]: 95 | Plant response rating, Field Poppy [9, 16]: 90 | Plant response rating, Field Poppy [9, 17]: 100 | Plant response rating, Field Poppy [9, 18]: 100 | Plant response rating: Field Violet [10, 11]: 85 | Plant response rating: Field Violet [10, 12]: 95 | Plant response rating: Field Violet [10, 13]: 100 | Plant response rating, Field Violet [10, 14]: 80 | Plant response rating, Field Violet [10, 15]: 80 | Plant response rating, Field Violet [10, 16]: 95 | Plant response rating, Field Violet [10, 17]: 100 | Plant response rating, Field Violet [10, 18]: 100
